In publication PMC5008386, “Oridonin, a novel lysine acetyltransferases inhibitor, inhibits proliferation and induces apoptosis in gastric cancer cells through p53- and caspase-3-mediated mechanisms” (Oncotarget, 2016) one finds IC50 data, which are given here for one compound.

pIC50: −log10 of the molar value.

In this assay the target is T1, P300 (Homo sapiens, UniProt Q09472).
T1 construct: gene EP300
Briefly: fluorogenic P300 acetyltransferase assay; also [3H]-acetyl CoA autoradiography and BLI (Octet RED96) with biotinylated oridonin. Type of assay: biochemical. (In general: Biolayer interferometry detects binding as a change in optical thickness at a sensor tip.)

T1 sequence (Q09472 2-2414): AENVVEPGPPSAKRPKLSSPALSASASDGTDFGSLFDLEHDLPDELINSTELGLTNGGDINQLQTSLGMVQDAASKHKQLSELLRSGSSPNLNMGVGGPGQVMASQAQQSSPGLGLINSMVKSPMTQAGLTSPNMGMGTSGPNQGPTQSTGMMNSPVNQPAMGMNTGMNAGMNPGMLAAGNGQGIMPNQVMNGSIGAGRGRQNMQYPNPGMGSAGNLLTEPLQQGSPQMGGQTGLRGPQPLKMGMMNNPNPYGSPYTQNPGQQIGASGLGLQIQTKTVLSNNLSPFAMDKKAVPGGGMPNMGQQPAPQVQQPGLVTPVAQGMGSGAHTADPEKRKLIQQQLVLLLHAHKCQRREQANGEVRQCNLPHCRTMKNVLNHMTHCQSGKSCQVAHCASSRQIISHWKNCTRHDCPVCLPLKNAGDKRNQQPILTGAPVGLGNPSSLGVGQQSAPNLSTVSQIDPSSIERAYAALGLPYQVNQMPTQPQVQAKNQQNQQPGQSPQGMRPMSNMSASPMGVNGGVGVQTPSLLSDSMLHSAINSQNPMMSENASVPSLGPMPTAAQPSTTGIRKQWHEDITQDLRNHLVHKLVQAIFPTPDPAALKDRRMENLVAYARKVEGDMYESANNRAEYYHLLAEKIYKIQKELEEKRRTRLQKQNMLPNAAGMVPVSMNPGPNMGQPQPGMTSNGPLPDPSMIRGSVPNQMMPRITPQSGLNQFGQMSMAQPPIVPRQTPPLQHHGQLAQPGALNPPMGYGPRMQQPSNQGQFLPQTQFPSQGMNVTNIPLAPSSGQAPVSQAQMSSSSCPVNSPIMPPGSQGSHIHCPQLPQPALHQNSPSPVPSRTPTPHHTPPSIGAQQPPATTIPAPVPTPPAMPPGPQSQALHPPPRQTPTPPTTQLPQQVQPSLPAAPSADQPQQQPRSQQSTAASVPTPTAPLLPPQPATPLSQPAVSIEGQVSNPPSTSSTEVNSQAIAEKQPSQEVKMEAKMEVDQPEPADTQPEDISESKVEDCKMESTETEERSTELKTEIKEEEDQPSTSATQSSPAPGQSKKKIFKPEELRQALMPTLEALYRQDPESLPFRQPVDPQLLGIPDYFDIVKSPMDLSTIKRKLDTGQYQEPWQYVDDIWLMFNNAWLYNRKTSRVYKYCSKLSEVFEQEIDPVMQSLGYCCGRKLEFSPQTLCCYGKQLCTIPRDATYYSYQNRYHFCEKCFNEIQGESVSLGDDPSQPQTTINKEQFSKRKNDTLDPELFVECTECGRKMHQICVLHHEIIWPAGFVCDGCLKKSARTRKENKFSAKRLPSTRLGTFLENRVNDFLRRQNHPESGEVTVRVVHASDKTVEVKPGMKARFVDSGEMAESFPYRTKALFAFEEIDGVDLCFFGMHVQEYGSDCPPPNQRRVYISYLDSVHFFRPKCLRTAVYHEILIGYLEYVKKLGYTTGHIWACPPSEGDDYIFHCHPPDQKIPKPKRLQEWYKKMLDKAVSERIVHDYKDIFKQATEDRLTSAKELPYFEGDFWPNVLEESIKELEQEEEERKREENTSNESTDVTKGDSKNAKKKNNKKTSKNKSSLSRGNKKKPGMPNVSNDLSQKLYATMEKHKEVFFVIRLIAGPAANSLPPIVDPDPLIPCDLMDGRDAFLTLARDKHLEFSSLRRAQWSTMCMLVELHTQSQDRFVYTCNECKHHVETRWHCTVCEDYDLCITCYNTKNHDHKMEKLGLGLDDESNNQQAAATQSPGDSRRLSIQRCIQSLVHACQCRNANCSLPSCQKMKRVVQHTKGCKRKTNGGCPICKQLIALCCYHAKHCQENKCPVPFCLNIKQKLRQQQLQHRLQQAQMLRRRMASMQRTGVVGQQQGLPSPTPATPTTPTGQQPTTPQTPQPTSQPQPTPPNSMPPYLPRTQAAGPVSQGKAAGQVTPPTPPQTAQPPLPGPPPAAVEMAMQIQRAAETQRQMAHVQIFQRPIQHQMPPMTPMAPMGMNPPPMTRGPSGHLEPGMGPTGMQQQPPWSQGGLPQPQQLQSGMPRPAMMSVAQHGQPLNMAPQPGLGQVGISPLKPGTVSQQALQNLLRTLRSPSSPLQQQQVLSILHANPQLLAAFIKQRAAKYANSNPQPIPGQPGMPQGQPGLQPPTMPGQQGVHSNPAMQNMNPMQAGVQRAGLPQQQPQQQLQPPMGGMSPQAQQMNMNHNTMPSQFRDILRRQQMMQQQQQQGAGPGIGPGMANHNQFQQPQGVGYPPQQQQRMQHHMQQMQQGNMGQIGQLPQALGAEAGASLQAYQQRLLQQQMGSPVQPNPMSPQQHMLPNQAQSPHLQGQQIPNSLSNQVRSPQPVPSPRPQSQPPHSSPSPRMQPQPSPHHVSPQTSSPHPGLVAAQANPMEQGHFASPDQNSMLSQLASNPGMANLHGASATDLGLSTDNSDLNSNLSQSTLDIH

For the compound `C=C1C(=O)[C@]23[C@H](O)[C@H]1CC[C@H]2[C@@]12CO[C@]3(O)[C@@H](O)[C@@H]1C(C)(C)CC[C@@H]2O` [oridonin], the pIC50 (as a rule, the negative decadic logarithm of the IC50, by convention in mol/L) was ~5.30.
